Data: PubChem BioAssay (NCI)
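Cultured in 96-well plates, cells were exposed to test compound for 48 hours across five concentrations. GI50: concentration for 50% inhibition of growth. TGI is the concentration that stops growth completely.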

How the values were obtained:
Assay in all cases: NCI-60 cell line screen, 48 h
786-0 renal = tested on: 786-0 renal
HL-60(TB) leukemia = tested on: HL-60(TB) leukemia
HS 578T breast = tested on: HS 578T breast
RXF 393 renal = tested on: RXF 393 renal
CAKI-1 renal = tested on: CAKI-1 renal
SR leukemia = tested on: SR leukemia
IGROV1 ovarian = tested on: IGROV1 ovarian
SK-MEL-5 melanoma = tested on: SK-MEL-5 melanoma
NCI-H460 lung = tested on: NCI-H460 lung
DU-145 prostate = tested on: DU-145 prostate
SF-539 CNS = tested on: SF-539 CNS
HT29 colon = tested on: HT29 colon
NCI-H23 lung = tested on: NCI-H23 lung
PC-3 prostate = tested on: PC-3 prostate
MALME-3M melanoma = tested on: MALME-3M melanoma
UO-31 renal = tested on: UO-31 renal
NCI-H226 lung = tested on: NCI-H226 lung
MDA-MB-435 = tested on: MDA-MB-435
A498 renal = tested on: A498 renal
NCI-H522 lung = tested on: NCI-H522 lung
K-562 leukemia = tested on: K-562 leukemia
SF-295 CNS = tested on: SF-295 CNS
SNB-19 CNS = tested on: SNB-19 CNS
U251 CNS = tested on: U251 CNS
RPMI-8226 leukemia = tested on: RPMI-8226 leukemia
MOLT-4 leukemia = tested on: MOLT-4 leukemia
NCI/ADR-RES ovarian = tested on: NCI/ADR-RES ovarian
UACC-62 melanoma = tested on: UACC-62 melanoma
OVCAR-4 ovarian = tested on: OVCAR-4 ovarian
A549 NSCLC = tested on: A549 NSCLC
EKVX NSCLC = tested on: EKVX NSCLC
SF-268 CNS = tested on: SF-268 CNS
OVCAR-8 ovarian = tested on: OVCAR-8 ovarian
KM12 colon = tested on: KM12 colon
TK-10 renal = tested on: TK-10 renal
UACC-257 melanoma = tested on: UACC-257 melanoma
SNB-75 CNS = tested on: SNB-75 CNS
SN12C renal = tested on: SN12C renal
SK-MEL-28 melanoma = tested on: SK-MEL-28 melanoma
HOP-62 NSCLC = tested on: HOP-62 NSCLC
HCT-116 colon = tested on: HCT-116 colon
SW-620 colon = tested on: SW-620 colon
ACHN renal = tested on: ACHN renal
MDA-N = tested on: MDA-N
OVCAR-3 ovarian = tested on: OVCAR-3 ovarian
MDA-MB-231 breast = tested on: MDA-MB-231 breast
LOX IMVI melanoma = tested on: LOX IMVI melanoma
CCRF-CEM leukemia = tested on: CCRF-CEM leukemia
MCF7 breast = tested on: MCF7 breast
HCT-15 colon = tested on: HCT-15 colon
T-47D breast = tested on: T-47D breast
HCC-2998 colon = tested on: HCC-2998 colon
OVCAR-5 ovarian = tested on: OVCAR-5 ovarian
M14 melanoma = tested on: M14 melanoma
HOP-92 NSCLC = tested on: HOP-92 NSCLC
COLO 205 colon = tested on: COLO 205 colon
SK-MEL-2 melanoma = tested on: SK-MEL-2 melanoma
SK-OV-3 ovarian = tested on: SK-OV-3 ovarian
BT-549 breast = tested on: BT-549 breast

Work on `CC(C)=Cc1cc2c(cc1O)CCC1C2CC[C@@]2(C)C1CC[C@@H]2O` (stereo partly specified) yielded a TGI (786-0 renal) of 25 µM, a TGI (HL-60(TB) leukemia) of 37.5 µM and a TGI (HS 578T breast) of 65.6 µM. For the same compound, the TGI (RXF 393 renal) was 20.9 µM, the TGI (CAKI-1 renal) was 29.5 µM and the TGI (SR leukemia) was 6.94 µM. For the same compound, the TGI (IGROV1 ovarian) was 29.9 µM, the TGI (SK-MEL-5 melanoma) was 19.3 µM and the TGI (NCI-H460 lung) was 26.1 µM. The TGI (DU-145 prostate) was 27.7 µM, the GI50 (SF-539 CNS) was 7.6 µM and the TGI (SF-539 CNS) was 22.4 µM. The TGI (HT29 colon) was 30.8 µM, the TGI (NCI-H23 lung) was 35.2 µM and the TGI (PC-3 prostate) was 28.6 µM. It also gave a TGI (MALME-3M melanoma) of 22.5 µM, a TGI (UO-31 renal) of 27.4 µM and a TGI (NCI-H226 lung) of 26.1 µM. The GI50 (MDA-MB-435) was 3.02 µM, the TGI (MDA-MB-435) was 11.7 µM and the TGI (A498 renal) was 29.9 µM. For the same compound, the TGI (NCI-H522 lung) was 31.2 µM, the TGI (K-562 leukemia) was 13.8 µM and the TGI (SF-295 CNS) was 7.57 µM. For the same compound, the TGI (SNB-19 CNS) was 24.4 µM, the TGI (U251 CNS) was 22.2 µM and the TGI (RPMI-8226 leukemia) was 26 µM. For the same compound, the TGI (MOLT-4 leukemia) was 25.3 µM, the TGI (NCI/ADR-RES ovarian) was 28 µM and the GI50 (UACC-62 melanoma) was 11 µM. It also gave a TGI (UACC-62 melanoma) of 24.7 µM, a TGI (OVCAR-4 ovarian) of 61 µM and a TGI (A549 NSCLC) of 27.5 µM. It also gave a TGI (EKVX NSCLC) of 31.5 µM, a TGI (SF-268 CNS) of 36.2 µM and a TGI (OVCAR-8 ovarian) of 40.7 µM. For the same compound, the TGI (KM12 colon) was 25.3 µM, the TGI (TK-10 renal) was 9.68 µM and the TGI (UACC-257 melanoma) was 30.5 µM. The TGI (SNB-75 CNS) was 24.8 µM, the TGI (SN12C renal) was 30 µM and the TGI (SK-MEL-28 melanoma) was 30.2 µM. It also gave a GI50 (HOP-62 NSCLC) of 15 µM, a TGI (HOP-62 NSCLC) of 31.7 µM and a TGI (HCT-116 colon) of 23.4 µM. The TGI (SW-620 colon) was 23.6 µM, the TGI (ACHN renal) was 29.5 µM and the TGI (MDA-N) was 7.14 µM. For the same compound, the GI50 (OVCAR-3 ovarian) was 5.27 µM, the TGI (OVCAR-3 ovarian) was 19.9 µM and the TGI (MDA-MB-231 breast) was 35.2 µM. It also gave a TGI (LOX IMVI melanoma) of 16.1 µM, a TGI (CCRF-CEM leukemia) of 40.8 µM and a TGI (MCF7 breast) of 37.4 µM. It also gave a TGI (HCT-15 colon) of 24.4 µM, a TGI (T-47D breast) of 89.5 µM and a TGI (HCC-2998 colon) of 31.8 µM. It also gave a TGI (OVCAR-5 ovarian) of 31.8 µM, a TGI (M14 melanoma) of 22.8 µM and a TGI (HOP-92 NSCLC) of 42.1 µM. The TGI (COLO 205 colon) was 32.7 µM, the TGI (SK-MEL-2 melanoma) was 32.7 µM and the TGI (SK-OV-3 ovarian) was 35 µM.

`COc1ccc2nc3cc(Cl)ccc3c(Nc3ccc(O)c(CN4CCN(C)CC4)c3)c2c1` showed a TGI (786-0 renal) of 3 µM, a TGI (HL-60(TB) leukemia) of 3.57 µM and a TGI (HS 578T breast) of 4.65 µM. The TGI (RXF 393 renal) was 3.22 µM, the TGI (CAKI-1 renal) was 3.98 µM and the TGI (IGROV1 ovarian) was 3.3 µM. For the same compound, the TGI (SK-MEL-5 melanoma) was 3.11 µM, the TGI (NCI-H460 lung) was 3.22 µM and the TGI (DU-145 prostate) was 3.73 µM. The TGI (SF-539 CNS) was 3.22 µM, the TGI (HT29 colon) was 3.54 µM and the TGI (PC-3 prostate) was 3.22 µM. It also gave a TGI (MALME-3M melanoma) of 3.21 µM, a TGI (UO-31 renal) of 3.31 µM and a TGI (NCI-H226 lung) of 38.9 µM. The TGI (MDA-MB-435) was 3 µM, the TGI (A498 renal) was 8.68 µM and the TGI (NCI-H522 lung) was 3.33 µM. For the same compound, the TGI (K-562 leukemia) was 3.71 µM, the TGI (SF-295 CNS) was 3.81 µM and the TGI (BT-549 breast) was 38.6 µM. The TGI (SNB-19 CNS) was 5.96 µM, the TGI (U251 CNS) was 3.15 µM and the TGI (RPMI-8226 leukemia) was 4.85 µM. It also gave a TGI (MOLT-4 leukemia) of 4.94 µM, a TGI (UACC-62 melanoma) of 3.07 µM and a TGI (OVCAR-4 ovarian) of 3.19 µM. The TGI (A549 NSCLC) was 3.47 µM, the TGI (EKVX NSCLC) was 3.52 µM and the TGI (SF-268 CNS) was 6.42 µM. The TGI (OVCAR-8 ovarian) was 3.56 µM, the TGI (KM12 colon) was 3.85 µM and the TGI (TK-10 renal) was 3.79 µM. The TGI (UACC-257 melanoma) was 3.45 µM, the TGI (SNB-75 CNS) was 3.91 µM and the TGI (SN12C renal) was 3.93 µM. It also gave a TGI (SK-MEL-28 melanoma) of 3.62 µM, a TGI (HOP-62 NSCLC) of 4.07 µM and a TGI (HCT-116 colon) of 3.74 µM. The TGI (SW-620 colon) was 5.1 µM, the TGI (ACHN renal) was 3 µM and the TGI (MDA-N) was 3.21 µM. The TGI (OVCAR-3 ovarian) was 3.76 µM, the TGI (MDA-MB-231 breast) was 2.99 µM and the TGI (MCF7 breast) was 3.12 µM. It also gave a TGI (HCT-15 colon) of 5.68 µM, a TGI (T-47D breast) of 4.48 µM and a TGI (HCC-2998 colon) of 2.42 µM. For the same compound, the TGI (OVCAR-5 ovarian) was 5.34 µM, the TGI (M14 melanoma) was 3.53 µM and the TGI (COLO 205 colon) was 3.04 µM. It also gave a TGI (SK-MEL-2 melanoma) of 3.29 µM and a TGI (SK-OV-3 ovarian) of 11.1 µM.
